In patent US9763445B2, “Safened herbicidal compositions comprising a pyridine carboxylic acid herbicide” (Dow AgroSciences, LLC, priority 2014, dated 2017):

Experiments:
cleavers (GALAP) = assay: Postemergence greenhouse trial, % visual injury on cleavers; type: in vivo, Galium aparine
Protocol: (§1) Seeds of the desired test plant species were planted in Sun Gro MetroMix® 306 planting mixture, which typically has a pH of 6.0 to 6.8 and an organic matter content of about 30 percent, in plastic pots with a surface area of 103.2 square centimeters (cm^2). When required to ensure good germination and healthy plants, a fungicide treatment and/or other chemical or physical treatment was applied. The plants were grown for 7-36 days (d) in a greenhouse with an approximate 14-hour (h) photoperiod which was maintained at about 23° C. during the day and 22° C. during the night. Nutrients and water were added on a regular basis and supplemental lighting was provided with overhead metal halide 1000-Watt lamps as necessary. The plants were employed for testing when they reached the second or third true leaf stage.
(§2) Weighed amounts of technical material were dissolved in a volume of 97:3 volume per volume (v/v) acetone/dimethyl sulfoxide (DMSO) to stock solutions. […] The concentrated stock solutions were diluted with an aqueous mixture of 1.5% v/v of Agri-dex crop oil concentrate to provide the appropriate application rates. Compound requirements are based upon a 12 milliliter (mL) application volume at a rate of 187 liters per hectare (L/ha). Stocks solutions of the safeners were prepared following the same procedure. Spray solutions of the safeners and experimental compound mixtures were prepared by adding the stock solutions to the appropriate amount of dilution solution to form a 12 mL spray solution in two-way combinations. Formulated compounds were applied to the plant material with an overhead Mandel track sprayer equipped with 8002E nozzles calibrated to deliver 187 L/ha over an application area of 0.503 square meters (m^2) at a spray height of 18 inches (43 centimeters (cm)) above average plant canopy. Control plants were sprayed in the same manner with the solvent blank. All herbicide application (component a) rates are in g ae/ha and all safener (component b) rates are in g ai/ha.
(§3) The treated plants and control plants were placed in a greenhouse as described above and watered by sub-irrigation to prevent wash-off of the test compounds. After 20-22 d, the condition of the test plants as compared with that of the control plants was determined visually and scored on a scale of 0 to 100 percent where 0 corresponds to no injury and 100 corresponds to complete kill. The condition of the test plants was compared with that of the control plants as determined visually and scored on a scale of 0 to 100 percent, where 0 corresponds to no injury and 100 corresponds to complete kill. Colby's equation was used to determine the herbicidal effects expected from the mixtures.
(§4) The safener cloquintocet-mexyl was combined with compound 1, compound 2, compound 3, compound 7, compound 8, compound 9, compound 10, compound 11, compound 12, compound 13, compound 14, compound 15, compound 16, compound 17, compound 18, compound 19, and compound 20, and applied to spring wheat (TRZAS), winter wheat (TRZAW), and spring barley (HORVS) and the phytotoxicity of the herbicidal compositions was measured. […]

shepherd's purse (CAPBP) [1] = assay: Postemergence greenhouse trial, % visual injury on shepherd's purse; type: in vivo, Capsella bursa-pastoris; conditions: CAPBP, CQC-m 0
Protocol: as §1, §2, §3, §4

cornflower (CENCY) [2] = assay: Postemergence greenhouse trial, % visual injury on cornflower; type: in vivo, Centaurea cyanus or Cyanus segetum; conditions: CENCY, CQC-m 0
Protocol: as §1, §2, §3, §4

shepherd's purse (CAPBP) [3] = assay: Postemergence greenhouse trial, % visual injury on shepherd's purse; type: in vivo, Capsella bursa-pastoris
nutsedge (CYPES) = assay: Postemergence greenhouse trial, % visual injury on nutsedge; type: in vivo, Cyperus esculentus; conditions: alone, 35 g/ha
Protocol: as §1, §2, §3
(§5) The safener cloquintocet-mexyl was combined with compound 1, compound 2, compound 4, compound 5, and compound 6, and applied to corn/maize (ZEAMX) and spring wheat (TRZAS) and the phytotoxicity of the herbicidal compositions was measured. In addition, the efficacy of the herbicidal composition on velvetleaf (ABUTH, Abutilon theophrasti), pigweed (AMARE, Amaranthus retroflexus), winter rape (BRSNW, Brassica napus), lambsquarters (CHEAL, Chenopodium album), thistle (CIRAR, Cirsium arvense), nutsedge (CYPES, Cyperus esculentus), poinsettia (EPHHL, Euphorbia heterophylla), wild buckwheat (POLCO, Polygonum convolvulus), giant foxtail (SETFA, Setaria faberi), and chickweed (STEME, Stellaria media) was evaluated. […]
The safener cloquintocet-acid and a number of agriculturally acceptable esters and salts (-mexyl, -dimethylammonium salt and -triethylammonium salt) were combined in varying ratios with compound 1 and applied to spring wheat (TRZAS), winter wheat (TRZAW), and spring barley (HORVS), and the phytotoxicity of the herbicidal compositions was measured. […]

prickly lettuce (LACSE) = assay: Postemergence greenhouse trial, % visual injury on prickly lettuce; type: in vivo, Lactuca serriola; conditions: LACSE
Protocol: as §1, §2
as §3, with “mixtures. […]” for “mixtures.”

corn/maize (ZEAMX) = assay: Postemergence greenhouse trial, % visual injury on corn/maize; type: in vivo, Zea mays; conditions: alone, 35 g/ha
Protocol: as §1, §2, §3, §5

winter wheat (TRZAW) = assay: Postemergence greenhouse trial, % visual injury on winter wheat; type: in vivo, Triticum aestivum; conditions: TRZAW; for % visual injury, Ob: CQC-m 0 g/ha
Protocol: as §1, §2, §3, §4

cornflower (CENCY) [4] = assay: Postemergence greenhouse trial, % visual injury on cornflower; type: in vivo, Centaurea cyanus or Cyanus segetum; conditions: CENCY; for % visual injury, Ob: CQC-m 0 g/ha
[5] = compound 4.375 g/ha, CQC-m 0 g/ha
[6] = compound 8.75 g/ha, CQC-m 0 g/ha
[7] = compound 17.5 g/ha, CQC-m 0 g/ha
[8] = compound 2 4.380 + CQC-m 0 g/ha

SMILES: Nc1c(F)c(-c2ccc3scnc3c2)nc(C(=O)O)c1Cl [compound 17]
- % visual injury, Ob (cleavers (GALAP); 4.375 g/ha, applied alone): 50%
- % visual injury, Ob (cleavers (GALAP); 8.75 g/ha, applied alone): 60%
- % visual injury, Ob (cleavers (GALAP); 17.5 g/ha, applied alone): 70%
- % visual injury, Ob (cleavers (GALAP); 35 g/ha, applied alone): 90%
- % visual injury, Ob (cleavers (GALAP); 70 g/ha, applied alone): 90%

SMILES: COC(=O)c1nc(-c2ccc3cc[nH]c3c2F)c(F)c(N)c1OC [compound 12]
- % visual injury, Ob (shepherd's purse (CAPBP) [1]; compound 4.380 g/ha): 70%
- % visual injury, Ob (shepherd's purse (CAPBP) [1]; compound 17.5 g/ha): 100%
- % visual injury, Ob (shepherd's purse (CAPBP) [1]; compound 70 g/ha): 100%
- % visual injury, Ob (cornflower (CENCY) [2]; compound 4.380 g/ha): 85%
- % visual injury, Ob (cornflower (CENCY) [2]; compound 8.75 g/ha): 95%
- % visual injury, Ob (cornflower (CENCY) [2]; compound 17.5 g/ha): 100%
- % visual injury, Ob (cornflower (CENCY) [2]; compound 35 g/ha): 100%
- % visual injury, Ob (cornflower (CENCY) [2]; compound 70 g/ha): 100%
- % visual injury, Ob (shepherd's purse (CAPBP) [3]; compound 8.75 g/ha, CQC-m 0): 100%
- % visual injury, Ob (shepherd's purse (CAPBP) [3]; compound 35 g/ha, CQC-m 0): 100%

SMILES: Nc1cc(-c2ccc3cc[nH]c3c2F)nc(C(=O)O)c1Cl [compound 15]
- % visual injury, Ob (cleavers (GALAP); [5]): 85%
- % visual injury, Ob (cleavers (GALAP); [6]): 85%
- % visual injury, Ob (cleavers (GALAP); [7]): 93%
- % visual injury, Ob (cleavers (GALAP); compound 35 g/ha, CQC-m 0 g/ha): 93%
- % visual injury, Ob (cleavers (GALAP); compound 70 g/ha, CQC-m 0 g/ha): 90%

SMILES: Nc1c(F)c(-c2ccc3cc[nH]c3c2F)nc(C(=O)OCc2ccccc2)c1Cl [compound 2]
- % visual injury, Ob (nutsedge (CYPES)): 30%
- % visual injury, observed (Ob) (prickly lettuce (LACSE); [8]): 40%
- % visual injury, observed (Ob) (prickly lettuce (LACSE); compound 2 8.75 + CQC-m 0 g/ha): 99%
- % visual injury, observed (Ob) (prickly lettuce (LACSE); compound 2 17.5 + CQC-m 0 g/ha): 99%
- % visual injury, observed (Ob) (prickly lettuce (LACSE); compound 2 35 + CQC-m 0 g/ha): 100%
- % visual injury, observed (Ob) (prickly lettuce (LACSE); compound 2 70 + CQC-m 0 g/ha): 100%
- % visual injury, Ob (corn/maize (ZEAMX)): 35%
- % visual injury, observed (Ob) (shepherd's purse (CAPBP) [3]; [8]): 20%
- % visual injury, observed (Ob) (shepherd's purse (CAPBP) [3]; compound 2 8.75 + CQC-m 0 g/ha): 30%
- % visual injury, observed (Ob) (shepherd's purse (CAPBP) [3]; compound 2 17.5 + CQC-m 0 g/ha): 100%
- % visual injury, observed (Ob) (shepherd's purse (CAPBP) [3]; compound 2 35 + CQC-m 0 g/ha): 100%
- % visual injury, observed (Ob) (shepherd's purse (CAPBP) [3]; compound 2 70 + CQC-m 0 g/ha): 100%
- % visual injury, observed (Ob) (winter wheat (TRZAW); compound 2 35 + CQC-m 0 g/ha): 20%
- % visual injury, observed (Ob) (winter wheat (TRZAW); compound 2 70 + CQC-m 0 g/ha): 30%
- % visual injury, observed (Ob) (winter wheat (TRZAW); compound 2 140 + CQC-m 0 g/ha): 50%
- % visual injury, observed (Ob) (cleavers (GALAP); [8]): 20%
- % visual injury, observed (Ob) (cleavers (GALAP); compound 2 8.75 + CQC-m 0 g/ha): 30%
- % visual injury, observed (Ob) (cleavers (GALAP); compound 2 17.5 + CQC-m 0 g/ha): 93%
- % visual injury, observed (Ob) (cleavers (GALAP); compound 2 35 + CQC-m 0 g/ha): 85%
- % visual injury, observed (Ob) (cleavers (GALAP); compound 2 70 + CQC-m 0 g/ha): 97%
- % visual injury, observed (Ob) (cornflower (CENCY) [4]; [8]): 100%
- % visual injury, observed (Ob) (cornflower (CENCY) [4]; compound 2 8.75 + CQC-m 0 g/ha): 100%
- % visual injury, observed (Ob) (cornflower (CENCY) [4]; compound 2 17.5 + CQC-m 0 g/ha): 100%
- % visual injury, observed (Ob) (cornflower (CENCY) [4]; compound 2 35 + CQC-m 0 g/ha): 100%
- % visual injury, observed (Ob) (cornflower (CENCY) [4]; compound 2 70 + CQC-m 0 g/ha): 100%

SMILES: CO/C=N/c1c(F)c(-c2ccc3cc[nH]c3c2F)nc(C(=O)OC)c1Cl [compound 10]
- % visual injury, Ob (shepherd's purse (CAPBP) [1]; compound 4.380 g/ha): 30%
- % visual injury, Ob (shepherd's purse (CAPBP) [1]; compound 17.5 g/ha): 100%
- % visual injury, Ob (shepherd's purse (CAPBP) [1]; compound 70 g/ha): 100%
- % visual injury, Ob (prickly lettuce (LACSE); compound 4.380 g/ha, CQC-m 0): 95%
- % visual injury, Ob (prickly lettuce (LACSE); compound 8.75 g/ha, CQC-m 0): 100%
- % visual injury, Ob (prickly lettuce (LACSE); compound 17.5 g/ha, CQC-m 0): 100%
- % visual injury, Ob (prickly lettuce (LACSE); compound 35 g/ha, CQC-m 0): 100%
- % visual injury, Ob (prickly lettuce (LACSE); compound 70 g/ha, CQC-m 0): 100%
- % visual injury, Ob (cornflower (CENCY) [2]; compound 4.380 g/ha): 100%
- % visual injury, Ob (cornflower (CENCY) [2]; compound 8.75 g/ha): 100%
- % visual injury, Ob (cornflower (CENCY) [2]; compound 17.5 g/ha): 100%
- % visual injury, Ob (cornflower (CENCY) [2]; compound 35 g/ha): 100%
- % visual injury, Ob (cornflower (CENCY) [2]; compound 70 g/ha): 100%
- % visual injury, Ob (shepherd's purse (CAPBP) [3]; compound 8.75 g/ha, CQC-m 0): 60%
- % visual injury, Ob (shepherd's purse (CAPBP) [3]; compound 35 g/ha, CQC-m 0): 100%

SMILES: COc1c(C(=O)O)nc(-c2ccc3cc[nH]c3c2F)c(F)c1N [compound 13]
- % visual injury, Ob (prickly lettuce (LACSE); [5]): 85%
- % visual injury, Ob (prickly lettuce (LACSE); [6]): 93%
- % visual injury, Ob (prickly lettuce (LACSE); [7]): 95%
- % visual injury, Ob (prickly lettuce (LACSE); compound 35 g/ha, CQC-m 0 g/ha): 95%
- % visual injury, Ob (prickly lettuce (LACSE); compound 70 g/ha, CQC-m 0 g/ha): 100%
- % visual injury, Ob (shepherd's purse (CAPBP) [3]; [5]): 85%
- % visual injury, Ob (shepherd's purse (CAPBP) [3]; [6]): 100%
- % visual injury, Ob (shepherd's purse (CAPBP) [3]; [7]): 100%
- % visual injury, Ob (shepherd's purse (CAPBP) [3]; compound 35 g/ha, CQC-m 0 g/ha): 100%
- % visual injury, Ob (shepherd's purse (CAPBP) [3]; compound 70 g/ha, CQC-m 0 g/ha): 100%
- % visual injury, Ob (winter wheat (TRZAW); compound 35 g/ha): 70%
- % visual injury, Ob (winter wheat (TRZAW); compound 70 g/ha): 80%
- % visual injury, Ob (cleavers (GALAP); [5]): 40%
- % visual injury, Ob (cleavers (GALAP); [6]): 70%
- % visual injury, Ob (cleavers (GALAP); [7]): 80%
- % visual injury, Ob (cleavers (GALAP); compound 35 g/ha, CQC-m 0 g/ha): 100%
- % visual injury, Ob (cleavers (GALAP); compound 70 g/ha, CQC-m 0 g/ha): 100%
- % visual injury, Ob (cornflower (CENCY) [4]; compound 4.375 g/ha): 100%
- % visual injury, Ob (cornflower (CENCY) [4]; compound 8.75 g/ha): 100%
- % visual injury, Ob (cornflower (CENCY) [4]; compound 17.5 g/ha): 100%
- % visual injury, Ob (cornflower (CENCY) [4]; compound 35 g/ha): 100%
- % visual injury, Ob (cornflower (CENCY) [4]; compound 70 g/ha): 100%
